{
  "source": "BindingDB's records for patent US20240425499",
  "about": "(Halia Therapeutics, 2024)",
  "data": [
    {"molecular_target": "T1, Tyrosine-protein kinase receptor TYRO3 (Homo sapiens, UniProt Q06418)", "T1 sequence (Q06418 whole entry)": "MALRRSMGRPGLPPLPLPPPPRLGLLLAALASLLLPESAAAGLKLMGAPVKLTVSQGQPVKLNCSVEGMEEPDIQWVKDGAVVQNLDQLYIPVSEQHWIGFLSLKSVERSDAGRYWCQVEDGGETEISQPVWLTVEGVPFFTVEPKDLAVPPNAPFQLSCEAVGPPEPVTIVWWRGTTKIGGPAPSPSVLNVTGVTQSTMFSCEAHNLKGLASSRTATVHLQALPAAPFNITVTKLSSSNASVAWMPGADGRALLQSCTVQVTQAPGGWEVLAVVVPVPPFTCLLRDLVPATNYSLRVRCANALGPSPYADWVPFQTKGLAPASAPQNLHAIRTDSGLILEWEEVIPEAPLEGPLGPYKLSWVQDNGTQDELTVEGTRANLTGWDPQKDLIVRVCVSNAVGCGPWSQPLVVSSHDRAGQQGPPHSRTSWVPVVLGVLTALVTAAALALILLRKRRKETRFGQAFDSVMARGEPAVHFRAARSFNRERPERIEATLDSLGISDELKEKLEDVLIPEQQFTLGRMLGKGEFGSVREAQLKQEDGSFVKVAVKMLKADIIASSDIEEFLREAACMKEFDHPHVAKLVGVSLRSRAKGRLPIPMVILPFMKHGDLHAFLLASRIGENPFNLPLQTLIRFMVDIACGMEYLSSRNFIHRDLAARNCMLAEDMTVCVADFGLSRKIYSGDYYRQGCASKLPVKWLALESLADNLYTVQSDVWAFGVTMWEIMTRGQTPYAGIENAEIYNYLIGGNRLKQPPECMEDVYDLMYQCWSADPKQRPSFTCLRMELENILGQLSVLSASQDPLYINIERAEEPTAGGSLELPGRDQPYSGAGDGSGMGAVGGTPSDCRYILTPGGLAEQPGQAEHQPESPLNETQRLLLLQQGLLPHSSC", "assay": "TYRO3 Enzymatic Assay", "protocol": "Poly(Glu, Tyr) sodium salt (Glu:Tyr (4:1), quality level 200, molecular weight 5,000-20,000, obtained from Sigma Aldrich, catalogue #P7244, assay concentration 0.20 mg/mL) and recombinant human TYRO3 (obtained from ThermoFisher Scientific, catalogue #PV3828, assay concentration 2 nM) were mixed in assay buffer (20 mM Hepes pH 7.5, 10 mM MgCl2, 1 mM EGTA, 0.02% Brij35, 0.02 mg/ml BSA, 0.1 mM Na3VO4, 2 mM DTT, 1% DMSO, with added MnCl2 at a final concentration of 2 mM). Compounds of interest (in DMSO, serial 3-fold dilution from 10 μM to 0.5 nM) or control (1% DMSO) were dispensed into the kinase reaction mixture by Acoustic technology (Echo550; nanoliter range). After incubation at room temperature for 20 minutes, the kinase reaction was initiated by addition of [32P]-ATP (Specific activity 10 μCi/μl) and the mixture was incubated at room temperature for 2 hours. The reaction was then stopped by spotting the reaction mixture on strips of phosphocellulose P81 paper. Following washing, the radioactivity of the P81 paper was measured and kinase activity data were expressed as the percent remaining kinase activity in test samples compared to vehicle (dimethyl sulfoxide) reactions.", "units": {"IC50": "µM"}, "values": [
      {"smiles": "COc1ccc(-c2c[nH]c3ncc(-c4ccc(CN5CCCC(O)C5)cc4)cc23)cc1C#N", "note": "(stereo unspecified) [US20240425499, Compound 18]", "IC50": "< 0.051"},
      {"smiles": "N#Cc1cccc(-c2c[nH]c3ncc(-c4ccc(CN5CCCC(O)C5)cc4)cc23)c1", "note": "(stereo unspecified) [US20240425499, Compound 15]", "IC50": "< 0.051"},
      {"smiles": "OC1CCCN(Cc2ccc(-c3cnc4[nH]cc(-c5cc(F)cc(C(F)(F)F)c5)c4c3)cc2)C1", "note": "(stereo unspecified) [US20240425499, Compound 13]", "IC50": "> 0.501"},
      {"smiles": "OC1CN(Cc2ccc(-c3cnc4[nH]cc(-c5ccc6[nH]ccc6c5)c4c3)cc2)C1", "note": "[US20240425499, Compound 44]", "IC50": "< 0.051"},
      {"smiles": "Cc1cccc(-c2c[nH]c3ncc(-c4ccc(CN5CCCC(O)C5)cc4)cc23)c1", "note": "(stereo unspecified) [US20240425499, Compound 2]", "IC50": "< 0.051"},
      {"smiles": "CN(C)Cc1ccc(-c2c[nH]c3ncc(-c4ccc(CN5CCCC(O)C5)cc4)cc23)cc1", "note": "(stereo unspecified) [US20240425499, Compound 17]", "IC50": "< 0.051"},
      {"smiles": "COc1ccc(-c2c[nH]c3ncc(-c4ccc(N5CCC(C)(O)CC5)cc4)cc23)cn1", "note": "[US20240425499, Compound 72]", "IC50": "> 0.501"},
      {"smiles": "CC(C)(O)c1ccc(-c2c[nH]c3ncc(-c4ccc(CN5CCCC(O)C5)cc4)cc23)cc1", "note": "(stereo unspecified) [US20240425499, Compound 85]", "IC50": "< 0.051"},
      {"smiles": "OC1CCCN(Cc2ccc(-c3cnc4[nH]cc(-c5ccc6ocnc6c5)c4c3)cc2)C1", "note": "(stereo unspecified) [US20240425499, Compound 50]", "IC50": "< 0.051"},
      {"smiles": "OC1CCCN(Cc2ccc(-c3cnc4[nH]cc(-c5cc(F)cc(F)c5)c4c3)cc2)C1", "note": "(stereo unspecified) [US20240425499, Compound 12]", "IC50": "< 0.051"},
      {"smiles": "N#Cc1cc(-c2c[nH]c3ncc(-c4ccc(CN5CCCC(O)C5)cc4)cc23)ccc1O", "note": "(stereo unspecified) [US20240425499, Compound 53]", "IC50": "< 0.051"},
      {"smiles": "CCc1[nH]c2ncc(-c3ccc(CN4CCCC(O)C4)cc3)cc2c1-c1ccnc(C(F)F)c1", "note": "(stereo unspecified) [US20240425499, Compound 61]", "IC50": "< 0.051"},
      {"smiles": "OC1CCCN(Cc2ccc(-c3cnc4[nH]cc(-c5cccc6[nH]ncc56)c4c3)cc2)C1", "note": "(stereo unspecified) [US20240425499, Compound 49]", "IC50": "< 0.051"},
      {"smiles": "COc1ccc(-c2c[nH]c3ncc(-c4ccc(CN5CC(CO)CC(F)(F)C5)cc4)cc23)cn1", "note": "(stereo unspecified) [US20240425499, Compound 33]", "IC50": "> 0.501"},
      {"smiles": "COc1ccc(-c2c[nH]c3ncc(-c4ccc(CN5CCCC(F)(F)C5)cc4)cc23)cn1", "note": "[US20240425499, Compound 41]", "IC50": "> 0.501"},
      {"smiles": "CCc1[nH]c2ncc(-c3ccc(CN4CCCC(O)C4)cc3)cc2c1-c1cccc(F)c1", "note": "(stereo unspecified) [US20240425499, Compound 57]", "IC50": "< 0.051"},
      {"smiles": "Oc1ccc(-c2c[nH]c3ncc(-c4ccc(CN5CCCC(O)C5)cc4)cc23)cc1", "note": "(stereo unspecified) [US20240425499, Compound 16]", "IC50": "< 0.051"},
      {"smiles": "CN(C)Cc1[nH]c2ncc(-c3ccc(CN4CCCC(O)C4)cc3)cc2c1-c1cccc(F)c1", "note": "(stereo unspecified) [US20240425499, Compound 87]", "IC50": "> 0.501"},
      {"smiles": "CC1(O)CCN(Cc2ccc(-c3cnc4[nH]cc(-c5ccc6[nH]ccc6c5)c4c3)cc2)CC1", "note": "[US20240425499, Compound 76]", "IC50": "< 0.051"},
      {"smiles": "OC1CCCN(Cc2ccc(-c3cnc4[nH]c(CC5CC5)c(-c5cccc(F)c5)c4c3)cc2)C1", "note": "(stereo unspecified) [US20240425499, Compound 90]", "IC50": "< 0.051"},
      {"smiles": "COCc1[nH]c2ncc(-c3ccc(CN4CCCC(O)C4)cc3)cc2c1-c1ccnc(F)c1", "note": "(stereo unspecified) [US20240425499, Compound 65]", "IC50": "< 0.051"},
      {"smiles": "OC1CCCN(Cc2ccc(-c3cnc4[nH]cc(-c5ccc(C(F)F)nc5)c4c3)cc2)C1", "note": "(stereo unspecified) [US20240425499, Compound 23]", "IC50": "< 0.051"},
      {"smiles": "COc1ccc(-c2c(Cl)[nH]c3ncc(-c4ccc(CN5CCCC(O)C5)cc4)cc23)cn1", "note": "(stereo unspecified) [US20240425499, Compound 56]", "IC50": "< 0.051"},
      {"smiles": "CCc1[nH]c2ncc(-c3ccc(CN4CCCC(O)C4)cc3)cc2c1-c1ccnc(F)c1", "note": "(stereo unspecified) [US20240425499, Compound 60]", "IC50": "< 0.051"},
      {"smiles": "COC1CN(Cc2ccc(-c3cnc4[nH]cc(-c5ccc6[nH]ccc6c5)c4c3)cc2)C1", "note": "[US20240425499, Compound 46]", "IC50": "< 0.051"},
      {"smiles": "OCc1ccc(-c2c[nH]c3ncc(-c4ccc(CN5CCCC(O)C5)cc4)cc23)cc1", "note": "(stereo unspecified) [US20240425499, Compound 83]", "IC50": "< 0.051"},
      {"smiles": "COCc1[nH]c2ncc(-c3ccc(CN4CCCC(O)C4)cc3)cc2c1-c1cccc(F)c1", "note": "(stereo unspecified) [US20240425499, Compound 63]", "IC50": "< 0.051"},
      {"smiles": "OC1CCCN(Cc2ccc(-c3cnc4[nH]cc(-c5cnc6[nH]ccc6c5)c4c3)cc2)C1", "note": "(stereo unspecified) [US20240425499, Compound 47]", "IC50": "< 0.051"},
      {"smiles": "N#Cc1ccc(-c2c[nH]c3ncc(-c4ccc(CN5CCCC(O)C5)cc4)cc23)cc1", "note": "(stereo unspecified) [US20240425499, Compound 14]", "IC50": "< 0.051"},
      {"smiles": "CCc1[nH]c2ncc(-c3ccc(CN4CCCC(O)C4)cc3)cc2c1-c1ccc(OC)nc1", "note": "(stereo unspecified) [US20240425499, Compound 59]", "IC50": "< 0.051"},
      {"smiles": "OC1CCCN(Cc2ccc(-c3cnc4[nH]cc(-c5cccc(C(F)F)c5)c4c3)cc2)C1", "note": "(stereo unspecified) [US20240425499, Compound 9]", "IC50": "< 0.051"},
      {"smiles": "COC1CCN(Cc2ccc(-c3cnc4[nH]cc(-c5ccc6[nH]ccc6c5)c4c3)cc2)CC1", "note": "[US20240425499, Compound 45]", "IC50": "< 0.051"},
      {"smiles": "CCOCc1[nH]c2ncc(-c3ccc(CN4CCCC(O)C4)cc3)cc2c1-c1cccc(F)c1", "note": "(stereo unspecified) [US20240425499, Compound 67]", "IC50": "< 0.051"},
      {"smiles": "CCc1[nH]c2ncc(-c3ccc(CN4CCCC(O)C4)cc3)cc2c1-c1ccc(C(F)F)nc1", "note": "(stereo unspecified) [US20240425499, Compound 58]", "IC50": "< 0.051"},
      {"smiles": "COc1ccc(-c2c[nH]c3ncc(-c4ccc(C(C)N5CCCC(O)C5)cc4)cc23)cn1", "note": "(stereo unspecified) [US20240425499, Compound 75]", "IC50": "< 0.051"},
      {"smiles": "OC1CCCN(Cc2ccc(-c3cnc4[nH]c(-c5ccoc5)c(-c5ccnc(F)c5)c4c3)cc2)C1", "note": "(stereo unspecified) [US20240425499, Compound 86]", "IC50": "< 0.051"},
      {"smiles": "OC1CCCN(Cc2ccc(-c3cnc4[nH]cc(-c5cc(F)c6ocnc6c5)c4c3)cc2)C1", "note": "(stereo unspecified) [US20240425499, Compound 52]", "IC50": "< 0.051"},
      {"smiles": "OC1CCCN(Cc2ccc(-c3cnc4[nH]cc(-c5ccc6cn[nH]c6c5)c4c3)cc2)C1", "note": "(stereo unspecified) [US20240425499, Compound 48]", "IC50": "< 0.051"},
      {"smiles": "OC1CCCN(Cc2ccc(-c3cnc4[nH]cc(-c5ccc6c(c5)CCNC6)c4c3)cc2)C1", "note": "(stereo unspecified) [US20240425499, Compound 80]", "IC50": "< 0.051"},
      {"smiles": "Cc1nc2cc(-c3c[nH]c4ncc(-c5ccc(CN6CCCC(O)C6)cc5)cc34)cnc2o1", "note": "(stereo unspecified) [US20240425499, Compound 84]", "IC50": "< 0.051"},
      {"smiles": "OC1CCCN(Cc2ccc(-c3cnc4[nH]cc(-c5cccc(F)c5)c4c3)cc2)C1", "note": "(stereo unspecified) [US20240425499, Compound 4]", "IC50": "< 0.051"},
      {"smiles": "OC1CCN(Cc2ccc(-c3cnc4[nH]cc(-c5ccc6[nH]ccc6c5)c4c3)cc2)CC1", "note": "[US20240425499, Compound 78]", "IC50": "< 0.051"},
      {"smiles": "c1cc2cc(-c3c[nH]c4ncc(-c5ccc(CN6CCCCC6)cc5)cc34)ccc2[nH]1", "note": "[US20240425499, Compound 79]", "IC50": "< 0.051"},
      {"smiles": "COCc1[nH]c2ncc(-c3ccc(CN4CCCC(O)C4)cc3)cc2c1-c1ccnc(C(F)F)c1", "note": "(stereo unspecified) [US20240425499, Compound 66]", "IC50": "< 0.051"},
      {"smiles": "COc1ccc(-c2c[nH]c3ncc(-c4ccc(CN5CC(O)CC(F)(F)C5)cc4)cc23)cn1", "note": "(stereo unspecified) [US20240425499, Compound 31]", "IC50": "> 0.501"},
      {"smiles": "Cc1nc2cc(-c3c[nH]c4ncc(-c5ccc(CN6CCCC(O)C6)cc5)cc34)ccc2o1", "note": "(stereo unspecified) [US20240425499, Compound 51]", "IC50": "< 0.051"}
    ]}
  ]
}
